Our source for the T/C values is PubChem BioAssay AID328 (DTP/NCI, 2004).

The subject of this assay is BDF1 mice, P388 leukemia ip, median survival T/C. In words: NCI In Vivo Anticancer Drug Screen. Data for tumor model P388 Leukemia (intraperitoneal) in B6D2F1 (BDF1) mice. To be noted: endpoint: median survival time, higher = longer survival. In short, it runs like this: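 In tumour-bearing mice, survival after compound treatment is set against the vehicle group and given as a quotient.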

Where [1] appears, read: dose: 100.0 mg/kg/injection, schedule: Q04DX003 (ip), vehicle: Klucel (hydroxypropylcellulose) (HPC).
The mark [2] stands for this setting: dose: 200.0 mg/kg/injection, schedule: Q04DX003 (ip), vehicle: Klucel (hydroxypropylcellulose) (HPC).
The mark [3] stands for this setting: dose: 400.0 mg/kg/injection, schedule: Q04DX003 (ip), vehicle: Klucel (hydroxypropylcellulose) (HPC).
The mark [4] stands for this setting: dose: 50.0 mg/kg/injection, schedule: Q01DX009 (ip), vehicle: saline with Tween-80.
[5] abbreviates: dose: 100.0 mg/kg/injection, schedule: Q01DX009 (ip), vehicle: saline with Tween-80.
Where [6] appears, read: dose: 200.0 mg/kg/injection, schedule: Q01DX009 (ip), vehicle: saline with Tween-80.
Setting [7] is: dose: 25.0 mg/kg/injection, schedule: Q04DX003 (ip), vehicle: saline.
Setting [8] is: dose: 50.0 mg/kg/injection, schedule: Q04DX003 (ip), vehicle: saline.
The mark [9] stands for this setting: dose: 12.5 mg/kg/injection, schedule: Q01DX009 (ip), vehicle: saline.
The mark [10] stands for this setting: dose: 50.0 mg/kg/injection, schedule: Q01DX009 (ip), vehicle: saline.
[11] abbreviates: dose: 100.0 mg/kg/injection, schedule: Q01DX009 (ip), vehicle: saline.
The mark [12] stands for this setting: dose: 6.25 mg/kg/injection, schedule: Q01DX009 (ip), vehicle: saline.
The mark [13] stands for this setting: dose: 25.0 mg/kg/injection, schedule: Q01DX009 (ip), vehicle: saline.
[14] abbreviates: dose: 100.0 mg/kg/injection, schedule: Q01DX001 (ip), vehicle: saline with Tween-80.
[15] abbreviates: dose: 200.0 mg/kg/injection, schedule: Q01DX001 (ip), vehicle: saline with Tween-80.
Setting [16] is: dose: 12.5 mg/kg/injection, schedule: Q01DX009 (ip), vehicle: saline with Tween-80.
Setting [17] is: dose: 1.5 mg/kg/injection, schedule: Q01DX009 (ip), vehicle: saline with Tween-80.

Where “and” joins values, the source holds several entries; their conditions need not be identical. Identical values can stand only once. Inconclusive results and toxic doses are left out.

For `Cc1c(Cl)c(Cl)c(C)c(Cl)c1Cl`, the T/C is 94 % of control under setting [1], 100 % of control under setting [2] and 100 % of control under setting [3].

As to `C=C(C)CSC(=S)NNc1ccccc1`, the T/C runs as follows: (dose: 37.5 mg/kg/injection, schedule: Q04DX003 (ip), vehicle: acetone) 109 % of control; (dose: 56.25 mg/kg/injection, schedule: Q01DX009 (ip), vehicle: Klucel (hydroxypropylcellulose) (HPC)) 115 % of control; (dose: 75.0 mg/kg/injection, schedule: Q04DX003 (ip), vehicle: acetone) 100 % of control; (dose: 100.0 mg/kg/injection, schedule: Q01DX001 (ip), vehicle: alcohol) 100 % of control; (dose: 112.5 mg/kg/injection, schedule: Q01DX009 (ip), vehicle: Klucel (hydroxypropylcellulose) (HPC)) 110 % of control; (dose: 150.0 mg/kg/injection, schedule: Q01DX009 (ip), vehicle: Klucel (hydroxypropylcellulose) (HPC)) 115 % of control. The T/C is, setting by setting: (dose: 150.0 mg/kg/injection, schedule: Q01DX009 (ip), vehicle: alcohol) 109 % of control; (dose: 150.0 mg/kg/injection, schedule: Q04DX003 (ip), vehicle: acetone) 104 % of control; (dose: 200.0 mg/kg/injection, schedule: Q01DX001 (ip), vehicle: alcohol) 104 % of control; (dose: 225.0 mg/kg/injection, schedule: Q01DX009 (ip), vehicle: Klucel (hydroxypropylcellulose) (HPC)) 115 % of control; (dose: 225.0 mg/kg/injection, schedule: Q04DX003 (ip), vehicle: alcohol) 100 % of control; (dose: 335.0 mg/kg/injection, schedule: Q01DX009 (ip), vehicle: Klucel (hydroxypropylcellulose) (HPC)) 115 % of control. The T/C (dose: 340.0 mg/kg/injection, schedule: Q04DX003 (ip), vehicle: alcohol) is 95 % of control.

With `N#Cc1c[nH]n2c(=S)ncnc12`, the T/C by setting is: under setting [4], 107 % of control; under setting [5], 90 % of control; (dose: 100.0 mg/kg/injection, schedule: Q04DX003 (ip), vehicle: saline with Tween-80) 104 % of control; under setting [6], 93 % of control; (dose: 200.0 mg/kg/injection, schedule: Q04DX003 (ip), vehicle: saline with Tween-80) 109 % of control; (dose: 300.0 mg/kg/injection, schedule: Q01DX009 (ip), vehicle: saline with Tween-80) 99 % of control.

Take `CCNCc1ccc(OC)cc1`: the T/C was 100 % of control under setting [7]; 100 % of control under setting [8]; 100 % of control (dose: 100.0 mg/kg/injection, schedule: Q04DX003 (ip), vehicle: saline).

With `Nc1ccc(C(=O)Nc2ccc(N(CCCl)CCCl)cc2)cc1`, the T/C under setting [9] is 108 % of control; the T/C under setting [7] is 152 % of control; the T/C under setting [10] is 173 % of control; the T/C under setting [8] is 216 % of control; the T/C under setting [11] is 170 % of control; the T/C (dose: 150.0 mg/kg/injection, schedule: Q01DX009 (ip), vehicle: saline) is 92 % of control.

Consider `Cc1c2c(O)c(O)c(O)cc2c[n+]2ccccc12`, for which the T/C runs as follows: under setting [12], 100 % of control; under setting [9], 106 % of control; under setting [13], 123 % of control.

Take `CC(=O)OC(C(=O)c1ccccc1)c1ccccc1` (stereo unspecified): the T/C is 95 % of control under setting [1], 104 % of control under setting [2] and 108 % of control under setting [3].

As for `O=[N+]([O-])c1ccc(N2[C@@H]3C4CCC([C@@H]32)C42OCCO2)cc1`, the T/C (dose: 50.0 mg/kg/injection, schedule: Q01DX001 (ip), vehicle: saline with Tween-80) was 93 % of control; the T/C under setting [14] is 118 % of control; the T/C under setting [15] is 93 % of control.

For the compound `CC(C)CCCC(C)CCO` (stereo unspecified), the T/C under setting [10] was 100 % of control; the T/C under setting [11] was 100 % of control; the T/C (dose: 200.0 mg/kg/injection, schedule: Q01DX009 (ip), vehicle: saline) is 101 % of control.

For `C[CH2][Ge]([CH2]C)[CH2]/C=C\[CH2][Ge]([CH2]C)[CH2]C`, the T/C is 100 % of control under setting [16]; 89 % of control (dose: 25.0 mg/kg/injection, schedule: Q01DX009 (ip), vehicle: saline with Tween-80); 100 % of control under setting [4].

With `COc1ccc(NC(=O)Nc2ccccc2F)cc1`, the T/C was 95 % of control under setting [14]; 95 % of control under setting [15]; 95 % of control (dose: 400.0 mg/kg/injection, schedule: Q01DX001 (ip), vehicle: saline with Tween-80).

Take `O=C(CCN1CC1)OCCOC(=O)CCN1CC1`: the T/C under setting [17] was 112 % of control; the T/C (dose: 16.0 mg/kg/injection, schedule: Q04DX003 (ip), vehicle: saline with Tween-80) is 150 % of control; the T/C (dose: 21.0 mg/kg/injection, schedule: Q04DX003 (ip), vehicle: saline with Tween-80) is 163 % of control; the T/C (dose: 33.0 mg/kg/injection, schedule: Q04DX003 (ip), vehicle: saline with Tween-80) was 163 % of control; the T/C (dose: 50.0 mg/kg/injection, schedule: Q04DX003 (ip), vehicle: saline with Tween-80) was 195 % of control; the T/C (dose: 75.0 mg/kg/injection, schedule: Q04DX003 (ip), vehicle: saline with Tween-80) is 181 % of control.

Consider `CCOC(=O)Cc1csc(NN=C(C)C)n1`, for which the T/C reads like this: under setting [10], 108 % of control; under setting [11], 110 % of control.

Turning to `S=C1SCN(Cc2ccccc2)CN1Cc1ccccc1`, the T/C is 113 % of control (dose: 100.0 mg/kg/injection, schedule: Q01DX001 (ip), vehicle: Klucel (hydroxypropylcellulose) (HPC)); 100 % of control (dose: 200.0 mg/kg/injection, schedule: Q01DX001 (ip), vehicle: Klucel (hydroxypropylcellulose) (HPC)); 100 % of control (dose: 400.0 mg/kg/injection, schedule: Q01DX001 (ip), vehicle: Klucel (hydroxypropylcellulose) (HPC)).

For the compound `COc1cccnc1/C=N/NC(N)=S`, the T/C is 115 % of control under setting [17]; 118 % of control (dose: 3.0 mg/kg/injection, schedule: Q01DX009 (ip), vehicle: saline with Tween-80); 157 % of control (dose: 5.0 mg/kg/injection, schedule: Q01DX009 (ip), vehicle: saline with Tween-80); 158 % of control (dose: 8.0 mg/kg/injection, schedule: Q01DX009 (ip), vehicle: saline with Tween-80); 158 % of control and 175 % of control (dose: 12.0 mg/kg/injection, schedule: Q01DX009 (ip), vehicle: saline with Tween-80).

On to `CC1(C)C=CN2C(=O)C3=CCCN3C(=O)C2CC12Nc1ccccc1C2=O` (stereo unspecified), for which the T/C is 94 % of control under setting [12], 104 % of control under setting [9], 110 % of control under setting [13] and 100 % of control under setting [10].

Consider `O=CNc1ccc(/C=C\c2ccnc3ccccc23)cc1`, for which the T/C was 111 % of control (dose: 3.13 mg/kg/injection, schedule: Q01DX009 (ip), vehicle: saline with Tween-80); 106 % of control (dose: 6.25 mg/kg/injection, schedule: Q01DX009 (ip), vehicle: saline with Tween-80); 103 % of control under setting [16]; 94 % of control under setting [4]; 86 % of control under setting [5]; 91 % of control under setting [6].

For the compound `CCCCCCCCCCCc1n(Cc2ccccc2)cc[n+]1C`, the T/C reads like this: (dose: 0.75 mg/kg/injection, schedule: Q01DX009 (ip), vehicle: saline) 117 % of control; (dose: 1.5 mg/kg/injection, schedule: Q01DX009 (ip), vehicle: saline) 114 % of control; (dose: 1.5 mg/kg/injection, schedule: Q04DX003 (ip), vehicle: saline) 100 % of control; (dose: 3.0 mg/kg/injection, schedule: Q01DX009 (ip), vehicle: saline) 114 % of control; (dose: 3.0 mg/kg/injection, schedule: Q04DX003 (ip), vehicle: saline) 115 % of control.

Turning to `CNC(=O)OCc1c(COC(=O)NC)c(-c2ccc(F)cc2)n2c1CCC2`, the T/C (dose: 1.56 mg/kg/injection, schedule: Q01DX009 (ip), vehicle: Klucel (hydroxypropylcellulose) (HPC)) was 122 % of control.
